{
  "source": "patent US6492427B2",
  "about": "“Methods for treating multiple sclerosis” (priority 1998, dated 2002)",
  "type_in_all_cases": "cell-based, rat",
  "key": {"[1]": {"system": "oligodendroglial cells", "assay": "Nuclear integrity assay: counts of intact nuclei (Zap-oglobin lysis) after insulin and IGF-I withdrawal", "settings": "for numbers of intact nuclei for IGF-I and insulin withdrawn cells: alone in BM, actinomycin 1, 2.5, 5 μg/ml, cycloheximide 1, 5, 10, 50 μg/ml; for counts of intact nuclei compared to BM: alone in BM at 10^−5, 10^−7 and 10^−9 M", "description": "In order to examine insulin and IGF-I dependent survival of the cells of the oligodendroglial lineage, cells were trophically deprived for a period of 24 hours at 16 DIV.\nCells were trophically withdrawn by replacing the media with a serum free, chemically-defined base media (BM) lacking insulin and IGF-I (Bottenstein et al., 1988). The base media consisited of DMEM supplemented with penicillin (50 IU/ml); streptomycin (50 μg/ml); 1 mM sodium pyruvate; 50 μg/ml transferrin; 0.005 μg/ml sodium selenite; 16 μg/ml putrescine; 0.006 μg/ml progesterone and 0.1 mg/ml bovine serum albumin. All the cells were washed with BM twice before exposing them to individual treatment conditions. Control cells were washed and placed in BM supplemented with 2.5 ng/ml IGF-I and 5 μg/ml insulin to form the insulin media (IM).\nCell survival in the cultures was assessed according to the method of (Soto and Sonnenschein, 1985). After washing and treatment in BM, BM-D9, IM and IM-D9 for 24 h, cells were harvested, centrifuged at 500 rpm for 5 min and the supernatant removed. Pelleted cells were then lysed with 200 μl of 10% Zap-oglobin (Coulter Electronics, FL, USA). The lysing agent is a detergent containing solution that lyses the plasma membrane but leaves the nuclei intact. The lysed solution was collected and vortexed. A small volume (10 μl) of the solution was removed and intact nuclei were counted using a haemocytometer. To be counted, nuclei had to show a completely intact smooth outer border. Counts of intact nuclei were pooled for three or four experiments (a total of 15-20 wells were used for each treatment condition). each treatment condition).\nOLs at 16 DIV were exposed to the different drug treatment conditions for 24 h, following which, the nuclear integrity assay was performed. On the day of the treatment, the cells growing in Nunc 24 well plates were washed twice with base media. Each treatment well received 50 μl of the appropriate drug solution and the total volume in the well was made up to 500 μl with either BM or IM.\nNuclear counts were obtained from quadruplicate wells per treatment condition and the experiment was repeated twice. OLs were exposed to the following treatment conditions: 1) IM, 2) BM, 3) BM-D9, 4) (−)-Desmethyldeprenyl (BM-Ds9), 5) IM-D9 and 6) IM +10^−9 M (−)-Desmethyldeprenyl (IM-Ds9).\nThe treatment conditions with the three general cytochrome P450 blockers were: 1) BM+Proadifen (2.5, 10, 25 μM), 2) BM-D9+Proadifen (2.5, 10, 25 μM), 3) BM-Ds9+Proadifen (2.5, 10, 25 μM), 4) BM+Metapyrone (50 μM), 5) BM-D9+Metapyrone (50 μM), 6) BM-Ds9+Metapyrone (50 μM), 7) BM+Piperonyl butoxide (100 μM), 5) BM-D9+Piperonyl butoxide (100 μM), 6) BM-Ds9+Piperonyl butoxide (100 μM).\nOLs at 16 DIV were washed twice with base media and exposed either to actinomycin, a transcriptional blocker or cycloheximide, a translational blocker for 24 h. […] Actinomycin and cycloheximide were either used with base media alone or in combination with 10^−9 M (−)-desmethyldeprenyl. Each treatment well received 50 μl of the drug solution and the total volume of the well was made up to 500 μl with base media.\nCounts of intact nuclei, obtained from quadruplicate wells per treatment condition were used to quantitate the effects of the transcriptional and translational blockers. Each experiment was repeated twice for experimental density series-II."}, "[2]": {"system": "mitochondrial membrane potential (ΔψM) of oligodendroglial cells", "assay": "CMTMR estimation of mitochondrial membrane potential by confocal microscopy", "set-up": "ΔΨM (18 h): key to the marks not given beside the values", "settings": "for increases in ΔψM induced by (−)-deprenyl on OL mitochondria: proadifen 10 μM, metyapone 50 μM or piperonyl butoxide 100 μM with 10^−9 M (−)-deprenyl in BM; for capacity of (−)-deprenyl and (−)-desmethyldeprenyl to maintain ΔψM in OL mitochondria: 10^−5 M with 10^−9 M (−)-deprenyl or (−)-desmethyldeprenyl in BM", "description": "The ΔψM was assessed by the addition of a lipophilic, potentiometric dye, chloromethyl-tetramethylrhodamine methyl ester (CMTMR, Mitotracker Orange™ Molecular Probes, Eugene, Oreg.). The CMTMR dye reacts with the thiol groups on proteins and peptides to form aldehyde fixable conjugates. Entry of the negatively charged mitochondrial matrix compartment is proportional to the difference in the membrane potential. Therefore, the CMTMR fluorescence labels the mitochondrial membrane potential generated due to the negativity difference between the mitochondrial matrix and the outside of the mitochondria. Upon cell fixation, CMTMR remains in the mitochondria and is not washed out unlike other mitochondrial potentiometric dyes like rhodamine123.\nOligodendrocytes at 16 DIV were placed in trophically deprived BM for 18 h or treated with BM-D9 or BM-Ds9. […] The cells were incubated in CMTMR at 37° C. for 15 min. The cells were then fixed with 4% cold paraformaldehyde on ice for 30 min and washed twice with 0.1M PBS. Consequently, the coverslips were mounted on glass slides with Aquamount (Gurr, England).\nIndividual mitochondria labeled with CMTMR were resolved by confocal microscopy. A Leica true confocal scanning (TCS) 4D microscope coupled to an argon-krypton laser (Omnichrome, USA) was used for cell imaging. A pinhole size of 20 with an excitation filter wavelength of 568 nm and an emission filter wavelength of 590 nm was used to image the CMTMR labeled mitochondria. Each field of the coverslip was imaged using an oil-immersion, 100 X, 1.3 N.A. objective at 512 by 512 by 8 bits per pixel resolution, background offset of −1 and line averaged 32 times in bi-directional line scan mode. Care was taken not to exceed the dynamic range of the gray value display. The confocal images obtained were saved on an optical drive in a tagged image file format (TIFF).\nFluorescence intensity of individual mitochondria was measured using the Metamorph™ program. Metamorph™ compiles measurements of objects in a 8-bit image ranging from gray values 0 (background) and 255. In order to obtain fluorescence intensity measures, a rectangular region tool of 2×2 pixels was used to measure two randomly selected areas within each mitochondrion. A total of ten mitochondria obtained equally from all the regions of each cell were measured within each image. About 20 images were analyzed for each treatment condition thereby giving a sum of about 400 mitochondrial fluorescence intensity measures. The raw values were then further graphed and analyzed with the Microcal Origin 4.1 program. Frequency count was performed on the data, which classified the data in ordered bins. A frequency distribution was obtained with lower bin value set at 0 and higher bin value set at 260."}, "[3]": {"system": "MBP, PLP, GC and CNPase-I", "assay": "Western blot of PROL and OL marker proteins", "settings": "BM + 10^−9 M, 18 h"}},
  "note": "Entries after “also recorded” stand apart in the source; their conditions may differ. *1 amine or outer side, *2 acyl side, *3 side chain or, on linkers, in order; H or OH if unused. Where a SMILES comes first, the peptide text is derived from it. Bridges are numbered along the chain shown (N, C = ends). Roman numbers before positions name the chains, in order. [ ]: non-standard residue; d: D form. Actinocin(9to1) = Cc1c2oc3c(C)ccc(C(=O)[*:1])c3nc-2c(C(=O)[*:2])c(N)c1=O; NMeV = CN[C@H](C(=O)O)C(C)C; Sar = CNCC(=O)O",
  "data": [
    {"smiles": "Cc1c2oc3c(C)ccc(C(=O)N[C@@H]4C(=O)N[C@H](C(C)C)C(=O)N5CCC[C@H]5C(=O)N(C)CC(=O)N(C)[C@@H](C(C)C)C(=O)O[C@@H]4C)c3nc-2c(C(=O)N[C@@H]2C(=O)N[C@H](C(C)C)C(=O)N3CCC[C@H]3C(=O)N(C)CC(=O)N(C)[C@@H](C(C)C)C(=O)O[C@@H]2C)c(N)c1=O", "note": "[actinomycin] (I: T[dV]P[Sar][NMeV] / II: T[dV]P[Sar][NMeV]; ester I:1-I:C, II:1-II:C; linker I:N-II:N via Actinocin(9to1))", "values": [
      {"measurement": "numbers of intact nuclei for IGF-I and insulin withdrawn cells", "setting": "[1]; 24 h", "value": "Neither agent altered the numbers of intact nuclei"}
    ]},
    {"smiles": "CCCC(C(=O)OCCN(CC)CC)(c1ccccc1)c1ccccc1", "note": "[proadifen]", "values": [
      {"measurement": "increases in ΔψM induced by (−)-deprenyl on OL mitochondria", "setting": "[2]; 18 h", "value": "blocked the increases in ΔψM induced by (−)-deprenyl"},
      {"measurement": "number of intact nuclei when compared to IM", "setting": "[1]; proadifen 2.5 μM with 10^−9 M (−)-deprenyl in BM, 24 h", "value": 144, "unit": "%"},
      {"measurement": "number of intact nuclei when compared to IM", "setting": "[1]; proadifen 10 μM with 10^−9 M (−)-deprenyl in BM, 24 h", "value": 109, "unit": "%"},
      {"measurement": "number of intact nuclei when compared to IM", "setting": "[1]; proadifen 25 μM with 10^−9 M (−)-deprenyl in BM, 24 h", "value": 91, "unit": "%"},
      {"measurement": "intact nuclei values for BM only", "setting": "[1]; proadifen 2.5, 10, 25 μM alone in BM, 24 h", "value": "did alter the values for BM only"},
      {"measurement": "increase in intact nuclei induced by 10^−9 M (−)-desmethyldeprenyl", "setting": "[1]; proadifen 2.5, 10, 25 μM with 10^−9 M (−)-desmethyldeprenyl in BM, 24 h", "value": "did not reduce the increase in intact nuclei"}
    ]},
    {"smiles": "C[C@@H]1C[C@@H]([C@H](O)CC2CC(=O)NC(=O)C2)C(=O)[C@@H](C)C1", "note": "[cycloheximide]", "values": [
      {"measurement": "numbers of intact nuclei for IGF-I and insulin withdrawn cells", "setting": "[1]; 24 h", "value": "Neither agent altered the numbers of intact nuclei"}
    ]},
    {"smiles": "CC(C)(C(=O)c1cccnc1)c1cccnc1", "note": "[metapyrone, 2-methyl-1,2-di(3-pyridyl)-1-propanone]", "values": [
      {"measurement": "increases in ΔψM induced by (−)-deprenyl on OL mitochondria", "setting": "[2]; 18 h", "value": "blocked the increases in ΔψM induced by (−)-deprenyl"}
    ]},
    {"smiles": "CC(N)Cc1ccccc1", "note": "(single isomer, unassigned; (-)) [(−)-amphetamine]", "values": [
      {"measurement": "capacity of (−)-deprenyl and (−)-desmethyldeprenyl to maintain ΔψM in OL mitochondria", "setting": "[2]; 18 h", "value": "reduce the capacity of (−)-deprenyl and (−)-desmethyldeprenyl to maintain ΔψM"},
      {"measurement": "capacity of (−)-deprenyl to increase survival of oligodendroglial cells", "setting": "[1]; 10^−3, 10^−5, 10^−7, 10^−9 M in combination with 10^−9 M (−)-deprenyl in BM, 24 h", "value": "markedly reduced the capacity of (−)-deprenyl to increase the survival"},
      {"measurement": "capacity of 10^−9 M (−)-desmethyldeprenyl to increase survival of oligodendroglial cells", "setting": "[1]; 10^−5 M with 10^−9 M (−)-desmethyldeprenyl in BM, 24 h", "value": "completely eliminated the capacity of 10^−9 M (−)-desmethyldeprenyl to increase the survival"},
      {"measurement": "counts of intact nuclei compared to BM", "setting": "[1]; 24 h", "value": "did alter the counts of intact nuclei"}
    ]},
    {"smiles": "C#CCN(C)C(C)Cc1ccccc1", "note": "(single isomer, unassigned; (+)) [(+)-deprenyl]", "values": [
      {"measurement": "concentration-survival relationship, numbers of intact nuclei", "setting": "[1]; BM with 10^−5, 10^−7 and 10^−9 M, 24 h", "value": "did not alter the numbers of intact nuclei from the values found for BM"}
    ]},
    {"smiles": "CN[C@@H](C)Cc1ccccc1", "note": "[(−)-methamphetamine]", "values": [
      {"measurement": "capacity of (−)-deprenyl and (−)-desmethyldeprenyl to maintain ΔψM in OL mitochondria", "setting": "[2]; 18 h", "value": "reduce the capacity of (−)-deprenyl and (−)-desmethyldeprenyl to maintain ΔψM"},
      {"measurement": "increase in numbers of intact nuclei induced by (−)-deprenyl", "setting": "[1]; 10^−5, 10^−7, 10^−9 M in combination with 10^−9 M (−)-deprenyl in BM, 24 h", "value": "significantly reduced the increase in numbers of intact nuclei induced by (−)-deprenyl in a graded concentration dependent manner"},
      {"measurement": "counts of intact nuclei compared to BM", "setting": "[1]; 24 h", "value": "did alter the counts of intact nuclei"}
    ]},
    {"smiles": "C#CCN[C@H](C)Cc1ccccc1", "note": "[(−)-desmethyldeprenyl]", "values": [
      {"measurement": "mitochondrial CMTMR fluorescence distributions (ΔψM) in ASTs, PROLs and OLs", "setting": "[2]; BM + 10^−9 M, 18 h", "value": "not significantly different to those found for IM; also recorded: prevented the decrease in ΔψM"},
      {"measurement": "ΔΨM (18 h)", "setting": "[2]; OL, relative to control (IM)", "value": "++++"},
      {"measurement": "increase in counts of intact nuclei compared to those for BM", "setting": "[1]; BM + 10^−9 M, 24 h, metabolite experiments (FIG. 11)", "value": 197, "unit": "%"},
      {"measurement": "numbers of intact nuclei relative to IM", "setting": "[1]; IM + 10^−9 M, 24 h, metabolite experiments (FIG. 11)", "value": 103, "unit": "%"},
      {"measurement": "Survival (24 h)", "setting": "[1]; OL cell survival, relative to control (IM)", "value": "++++"},
      {"measurement": "band densities for MBP, CNP-ase I and PLP compared to IM", "setting": "[3]", "value": "exceed those for IM"},
      {"measurement": "immunodensity of marker proteins (MBP, PLP, GC, CNPase-I) compared to BM", "setting": "[3]", "value": "marked increase in immunodensity compared to BM"}
    ]}
  ]
}
